Data reported in patent US9138659B2, “Compositions, methods, and systems relating to controlled crystallization and/or nucleation of molecular species” (Massachusetts Institute of Technology, priority 2010, dated 2015).

How the values were obtained:
[1] = Nucleation induction time of aspirin on nanopatterned AA-co-DVB polymer films from butyl acetate; format: physicochemical; conditions: for Nucleation induction time τ: aspirin, butyl acetate
Excerpt: The effect of nanopatterned polymer films on the kinetics of nucleation from solution was quantified by measuring the nucleation induction time of aspirin, a representative small organic molecule. The polymer film was made from acrylic acid crosslinked with divinylbenzene (AA-co-DVB), with which aspirin could interact via hydrogen bonding. Polymer crosslinking was designed to avoid solvent uptake and to maintain the surface morphology when in contact with the solution. Due to the stochastic nature of nucleation events, 20 to 50 samples were tested simultaneously to obtain the probability distribution for the nucleation induction time. The average induction time, τ, was determined from a statistical analysis on the induction time data assuming that nucleation follows a Poisson distribution, P(t)=exp(−t/τ). The nucleation rate, J, was calculated from τ via J=1/τV, where V is the volume of solution, with the assumption that the time scale of nucleation is much longer than that of crystal growth, valid for this system.
In FIG. 14: Effect of the nanopore shape in AA-co-DVB polymer films on the nucleation kinetics of aspirin: flat vs. spherical pores (left); spherical pores vs. hexagonal pores and square pores of the same size (right). J is the nucleation rate, in number of nuclei per ml of solution per hour, calculated from the average nucleation induction time τ by J=1/τV, where V is the volume of solution. The standard errors of J were calculated from the regression on the induction time probability distribution following the Poisson distribution.
Nucleation Induction Time Measurement: Once synthesized, the polymer film with its substrate was inserted vertically into a 1 ml glass shell vial containing 200 μl 47 mg/ml aspirin solution in butyl acetate. For each polymer sample, 20-50 vials were assembled and immersed in a circulator stabilized at 50±0.1° C. to dissolve any pre-existing crystals, and then the solution was quench cooled to 5±0.1° C. by immersing into a second circulator. The number of vials in which crystallization occurred was recorded as a function of time. All the operations involving exposing polymer films, aspirin solutions and shell vials to the atmosphere were conducted inside a Bio Safety Cabinet to reduce impurity contamination to the lowest level. Efforts were made to clean all components before usage and aspirin solutions were filtered with an Acrodisc 0.2 μm PTFE syringe filter.

[2] = Equilibrium partitioning of ASA / ACM into PEGDA and PEGDA-co-AM gels; format: physicochemical
Protocol: This theory is exemplified by quantifying the partitioning of aspirin between the PEGDA gel phase and 38/62 ethanol/water (v/v), and determining the concentration of aspirin in the hydrogel particles. The partitioning experiments were performed at the same solution concentration and temperature as in the nucleation induction time experiments. In the partitioning experiment, both the concentrations of aspirin and ethanol were measured, as there are three species in the bulk solution, namely aspirin, ethanol and water, all of which partition in the gel phase to a certain degree determined by their relative interaction with the PEGDA polymer matrix.
Composition of aspirin solution in the PEGDA gel phase were compared with the bulk phase. PEGDA gels sufficiently large for convenient handling were synthesized by UV polymerization, following the same formulation as the synthesis of PEGDA particles used in the crystallization study. The PEGDA gels were washed with ethanol and vacuum dried to remove unreacted species. The gel was then immersed in excessive 38 mg/ml aspirin solution in 38/62 ethanol/water (v/v) and allowed sufficient time to reach equilibrium swelling at 15° C. before taken out, pad dried, and put in excessive water. After 5 hours immersed in water, the concentrations of aspirin and ethanol in the aqueous phase were analyzed by UV-Vis spectroscopy and Gas Chromatography, respectively.
In FIG. 10: Partitioning of aspirin vs. acetaminophen in the PEGDA gel. Y axis represents the relative API concentration in the PEGDA, normalized by the bulk concentration. The aspirin partitioning experiment was conducted in 38 mg/ml aspirin solution in 38/62 ethanol/water (v/v) at 15° C. As for acetaminophen, 95 mg/ml acetaminophen solution in 38/62 ethanol/water (v/v) was used and the equilibration temperature was 8° C. In both cases, the experimental conditions were kept the same as used in the nucleation induction time study.
Quantification of polymer-solute interactions: The strength of intermolecular interactions between the PEGDA-co-AM polymer network and the molecule to crystallize was characterized with the solute equilibrium partition coefficient at the same condition as used in the crystallization study. Solute partition coefficient κ, defined as the ratio of solute mass fraction in solution confined in the gel to that in the bulk, is a relevant parameter because it informs the solute concentration in the gel at the crystallization condition, which is an important factor affecting nucleation. […] The PEGDA polymers are comprised of the PEG subchain and the acrylate crosslinkers.
Partition coefficient measurements: Partition coefficients of ASA in PEGDA-co-AM gels from its bulk solution were determined as follows. In brief, a series of gels with varying mesh sizes of approximately 5 mm in diameter and 0.5 mm in thickness were synthesized via UV polymerization following the same formula as used in the microgel synthesis. The residue solvent, porogen and monomer molecules were removed by extensive washing with solvent ethanol and subsequent vacuum drying. The dry gels were then immersed in excessive volume of 38 mg/ml ASA solution in 38/62 (v/v) ethanol/water at 15° C. for overnight.

Which “enhancement of aspirin nucleation rate relative to spherical pores” value ([1]; AA-co-DVB film with hexagonal pores) does the source give for CC(=O)Oc1ccccc1C(=O)O [aspirin] here?
Its value is “more than an order of magnitude”.

What about the “enhancement of aspirin nucleation rate relative to spherical pores” value ([1]; AA-co-DVB film with square pores) of the same molecule?
Its value is “three-fold”.

And the “Nucleation induction time τ” value ([1]; AA-co-DVB film with hexagonal nanopores, 15 nm)?
The value was 26 ± 7 min.

What about the “Nucleation induction time τ” value ([1]; AA-co-DVB film with square nanopores, 125 nm) of the same molecule?
Its value is 138 ± 12 min.

And the “increase of κ after introducing AM into the PEGDA gel” value ([2]; ASA, on average)?
Its value is 60%.

What about the “molar ratio of ethylene oxide units in PEG to ASA” value ([2]; PEGDA gels, all mesh sizes, calculated from the partition experiments) of the same molecule?
Its value is 7.7.

What about the “AM to ASA molar ratio” value ([2]; PEGDA-co-AM gels) of the same molecule?
Its value is “around unity”.

What about the “ASA concentration in the PEGDA-co-AM gels relative to bulk solution” value ([2]; PEGDA-co-AM gels) of the same molecule?
Its value is “as high as six times”.

And the “aspirin concentration in PEGDA particles with respect to the bulk” value ([2]; all PEGDA particles, 38 mg/ml in 38/62 ethanol/water, 15° C)?
The value was “more than three times”.
